Results from EP4620304A1, “FORMULATION COMPRISING CLOMAZONE AND DIURON” (Adama Agan Ltd., priority 2024, dated 2025).
In brackets after ≈: the same amount, converted by molar mass. Where two headings read alike, the source gives them in different places.

Experiment: Solubility in clomazone or propylene glycol by visual verification (turbidity)
Assay type: physicochemical
Conditions: organic solvent or mixture, thermodynamic from solid
Description: All solubilities mentioned in the present document were measured through visual verification. In a known quantity of clomazone or propylene glycol at a desired temperature, the solute (e.g. hexazinone or diuron) was added at a rate of 0.2g/5min.

| Compound | solubility (23 °C, Solubility of Hexazinone in Clomazone) | solubility (23 °C, Solubility of Hexazinone in Propileneglycol) | solubility (40 °C, Solubility of Hexazinone in Clomazone) | solubility (40 °C, Solubility of Hexazinone in Propileneglycol) | solubility (54 °C, Solubility of Hexazinone in Clomazone) | solubility (54 °C, Solubility of Hexazinone in Propileneglycol) | solubility (23 °C, 23 °C, read-out: Solubility of Diuron in Clomazone) | solubility (40 °C, 40 °C, read-out: Solubility of Diuron in Clomazone) | solubility (54 °C, 54 °C, read-out: Solubility of Diuron in Clomazone) |
| --- | --- | --- | --- | --- | --- | --- | --- | --- | --- |
| CN(C)c1nc(=O)n(C2CCCCC2)c(=O)n1C [Hexazinone] | 53 mg/mL (≈ 210 mM) | 510 mg/mL (≈ 2020 mM) | 62 mg/mL (≈ 246 mM) | 580 mg/mL (≈ 2300 mM) | 73 mg/mL (≈ 289 mM) | 630 mg/mL (≈ 2500 mM) | – | – | – |
| CN(C)C(=O)Nc1ccc(Cl)c(Cl)c1 [Diuron] | – | – | – | – | – | – | 28 mg/mL (≈ 120 mM) | 36 mg/mL (≈ 154 mM) | 61 mg/mL (≈ 262 mM) |
